In patent publication US6723712B2, “Antiviral agent for use in treatment of cancer” (Institut Gustave Roussy, priority 1999, dated 2004):
Entries after “also recorded” stand apart in the source; their conditions may differ.

Assays:
[1] = system: human cancer cells; assay: Combination with chemotherapeutic drugs, tumor cell growth; assay type: cell-based; conditions: in vitro
Procedure: Similar experiments combining a nucleoside analogue with cytotoxic agents other than irradiation were performed (chemotherapeutic drugs, cytokines). The example presented herewith relates to the combination of cidofovir with chemotherapeutic drugs which was evaluated in vitro and in vivo in various virus-associated and non virus-associated human cancers.

[2] = system: EBV and HPV cancer cells; assay: Radiation-induced DNA repair by Fluorescence In Situ Hybridization (FISH); assay type: cell-based, human; conditions: FISH (data not shown)
Description: Cidofovir is a potent inhibitor of the replication of EBV and HPV in cell culture. In addition, the incorporation into the cellular DNA of the infected cell may disrupt the genomic integrity and enhance susceptibility to apoptosis or necrosis.

[3] = system: cell lines derived from human cervical carcinoma; conditions: cited from earlier work
[4] = system: RAJI cells; assay: Apoptosis assay (FACS, sub-G1 peak) in RAJI cells; assay type: cell-based, human; conditions: Cidofovir 10 μg/ml combined with irradiation (3 and 6 Gy)
Procedure: (§1) a, RAJI cells were cultured in the presence of Cidofovir (5 and 10 μg/ml) and irrediated […] with 3 Gy and then assayed for apoptosis by FACS analysis. C15 tumors were injected intra-tumorally for 5 days with Cidofovir ([…]) and received 7 Gy on day 3 and 5. Animals were sacrified on day 7 and tumors were dissected and prepared for FACS analysis of propidium-iodide nuclei staining as described above.
(§2) The cell cycle distribution was estimated by staining ethanol-fixed cells with propidium iodide and monitoring by FACScan flow cytometer (Becton Dickinson) using cellQuest software. Briefly, 1×10^6 cells were cultured without or with 5 and 10 μg/ml of Cidofovir, 24 hours later cells were irradiated with 3 and 6 Gy and collected 12 and 24 hours after irradiation. The percentage of apoptotic cells was determined by sub-G1 peak.

[5] = system: p53; assay: Immunoblot densitometry of p53 in HTB33 cells; assay type: cell-based, human; conditions: HTB33, Cidofovir 10 μg/ml, scored 1 without Cidofovir
Procedure: (§3) a2b2 HEP2 (a) and HTB33 (b) cells were cultured in the presence or absence of Cidofovir (10 μg/ml) for 3 and 6 days, and cells were collected in exponential phase, lysed and total protein were immunoblotted with the Ab-1 anti-E7, C1P5 […], and DO7 anti-p53. The blots were stripped and re-probed with a monoclonal β-actin antibody.
(§4) To prepare total proteins, cells lysates were extracted with lysis buffer 50 mM tris, pH 8, 120 mM NaCl, 0,1% SDS, and 0,5% NP-40. The protein concentration in the soluble fraction was determined by using a BioRad protein assay reagent. The viral oncoprotein LMP1 was detected by immunoblotting with a monoclonal anti-LMP1 antibody (clone CS1,CS2,CS3 & CS4 cocktail, RDI). The following antibodies were used: anti-Bcl2 (clone 100 Santa Cruz Biotechnology), anti-Bax (clone B-9, Santa Cruz, anti-E6 (clone CIP5, abcam), anti-E7 (clone Ab-1, oncogene), anti-p53 (clone DO7, Dako). Anti β-actin (clone AC-40, Sigma) was used to control protein loading. Autoradiograms of the Western blot were scanned with the Gil doc 1000 image scanner (Bio-rad, Hercules, Calif.) and densitometric analysis of the bands was performed using the molecular analyst software program (Bio-rad, Hercules, Calif.).

[6] = system: LMP-1; assay: Western blot of LMP-1 in RAJI cells; assay type: cell-based, EBV
Procedure: b, RAJI cells were cultured in the presence or absence of Ciodofovir (10 μg/ml). […] For C15, at day 7 portions of tumors where lysed in RIPA buffer and protein extracts were immunoblotted with anti-LMP-1 antibody. The blot from b was stripped and re-probed with a monoclonal β-actin antibody.
as §4

[7] = system: EBV+ and HPV+ cell lines (C15, Raji, HTB33, HEP2); assay: Clonogenic survival and proliferation test with irradiation, EBV+ and HPV+ cell lines; assay type: cell-based, human; conditions: cidofovir 1 to 10 μg/ml combined with irradiation, virus-related cells
Procedure: (§5) Irradiation of cells was performed using a ^137Cs γ-rays source at a dose rate of 1.45 Gy.min^−1. Briefly survival curves were obtained by irradiating cells (0 to 6 Gy). The linear-quadratic model was used for fitting survival curves. Quantification of radiosensitivity was obtained by the surviving fraction at 2 Gy (SF2). Cell survival was also assessed by using proliferation tests (incorporation of tritiated thymidine and MTT). Irradiation of animals was performed using a 200 kv apparatus.
(§6) It was studied in EBV+ human carcinoma C15 cells, EBV+ lymphoma Raji cells, 2 HPV+ carcinoma HTB33 and HEP2 cells. The effect of the combination was also studied in 3 human cell lines lacking the viral infection namely Ramos (lymphoma) HTB31 and SCC97 (carcinoma) cells.
(§7) For each cell line, several concentrations of cidofovir were used in vitro in combination with irradiation (between 1 and 10 μg/ml). The effect of the combined treatment was evaluated using both a proliferation test and a clonogenic assay for cell survival.

[8] = system: HPV+ tumors; assay: Histological sections of HPV+ tumors; assay type: in vivo, mice; conditions: Cidofovir combined with irradiation, 2 HPV+ models (data not shown)
Description: At 10 day after treatment, mice with HPV+ tumors from all groups were sacrified and tumors were excised and fixed in 10% neutral buffered formalin (NBF). The sections from each group were heamatoxylin and eosin (H&E)-stained for histological analysis.

[9] = system: non-virally induced tumors; assay: Tumor growth of non-virally induced human xenografts in nude mice; assay type: in vivo; conditions: cidofovir intra-tumor 60 mg/kg daily 5 days + irradiation 7 Gy on day 3 and 5
Procedure: (§8) In vivo data are reported as the percentage of original (day 0) tumor volume and plotted as fractional tumor volume±S.E. Statistical significance was determined by Kruskal/Wallis and Mann-Withney U tests.
(§9) Female Swiss nu/nu mice were housed throughout experiments in sterile isolators and fed ad libitum with irradiated food (UAR, Villemoisson/Orge, France) and filtered water. Experiments were performed according to the regulation n°86/609/CEE of the European Community. Cell lines were established in vivo in Swiss athymic mice by subcutaneous injection in the right flank of 5×10^6 cells per animal and subsequently maintained in vivo by sequential passages in animals aged 6 to 8 weeks. Nude mice bearing 500-1000 mm3 tumors were used for in vivo experiments. Two types of control were used including both injection of PBS (intra-tumor and intravenous (IV)), irradiation alone, or chemotherapy alone.
Irradiation of cells was performed using a ^137Cs γ-rays source at a dose rate of 1.45 Gy.min^−1. […] Quantification of radiosensitivity was obtained by the surviving fraction at 2 Gy (SF2). Cell survival was also assessed by using proliferation tests (incorporation of tritiated thymidine and MTT). […]
The example presented herewith also relates to the combination of cidofovir with irradiation which was evaluated in vivo in various human viral-associated and also in non viral associated human cancers. […]

[10] = system: p53; assay: Immunoblot densitometry of p53 in HEP2 cells; assay type: cell-based, human; conditions: HEP2, Cidofovir 10 μg/ml, scored 1 without Cidofovir
Procedure: as §3, §4

[11] = system: Ramos, HTB31, and SCC97 cells; assay: Clonogenic survival and proliferation test with irradiation, non virus-containing cells; assay type: cell-based, human; conditions: cidofovir 1 to 10 μg/ml combined with irradiation, non virus-related cells
Procedure: as §5, §6, §7

[12] = system: Bcl2; assay: Western blot of Bcl2 in EBV+ cells; assay type: cell-based, human; conditions: Cidofovir 10 μg/ml, 48 hrs
Procedure: (§10) b, RAJI cells were cultured in the presence or absence of Ciodofovir (10 μg/ml). At 48 hrs, cells were harvested and analyzed for the expression of LMP1, bcl-2 and bax by Western-blot. For C15, at day 7 portions of tumors where lysed in RIPA buffer and protein extracts were immunoblotted with anti-LMP-1 antibody. The blot from b was stripped and re-probed with a monoclonal β-actin antibody.
as §4

[13] = system: Bax; assay: Western blot of Bax in EBV+ cells; assay type: cell-based, human; conditions: Cidofovir 10 μg/ml, 48 hrs
Procedure: as §10, §4

[14] = system: LMP-1; assay: Immunoblot of LMP-1 in C15 tumors; assay type: in vivo, EBV; conditions: intra-tumoral Cidofovir 50 mg/kg/day for 5 days, day 7
Procedure: as §1, §10
To prepare total proteins, cells lysates were extracted with lysis buffer 50 mM tris, pH 8, 120 mM NaCl, 0,1% SDS, and 0,5% NP-40. The protein concentration in the soluble fraction was determined by using a BioRad protein assay reagent. The viral oncoprotein LMP1 was detected by immunoblotting with a monoclonal anti-LMP1 antibody (clone CS1,CS2,CS3 & CS4 cocktail, RDI). […]

[15] = system: E7; assay: Immunoblot of E7 in HPV+ HTB33 and HEP2 cells; assay type: cell-based; conditions: HPV+ cells exposed to Cidofovir 10 μg/ml
Procedure: as §3, §4

[16] = system: E6; assay: Immunoblot densitometry of E6 in HTB33 cells; assay type: cell-based, HPV; conditions: HTB33, Cidofovir 10 μg/ml, scored 1 without Cidofovir
Procedure: as §3, §4

[17] = system: C15 tumors; assay: Apoptosis assay (FACS, propidium iodide) in C15; assay type: in vivo, human; conditions: C15, Cidofovir combined with irradiation
Procedure: as §1, §2

[18] = system: C15, Raji, HEP2, HTB33 tumor xenografts; assay: Tumor growth of virus-positive human xenografts in nude mice; assay type: in vivo
Procedure: as §8, §9, §5
The example presented herewith also relates to the combination of cidofovir with irradiation which was evaluated in vivo in various human viral-associated and also in non viral associated human cancers. The effect of cidofovir alone or combined with irradiation was studied in vivo in nude mice bearing 500-1000 mm3 tumor xenografts. The treatment consisted of 60 mg/kg daily of cidofovir intra-tumor injection for 5 days. In the combined group, irradiation (7 Gy) was performed on day 3 and 5 of cidofovir.

[19] = system: E6; assay: Immunoblot densitometry of E6 in HEP2 cells; assay type: cell-based, HPV; conditions: HEP2, Cidofovir 10 μg/ml, scored 1 without Cidofovir
Procedure: as §3, §4

[20] = system: cervical carcinoma xenografts; conditions: cited from earlier work

SMILES: Nc1ccn(C[C@@H](CO)OCP(=O)(O)O)c(=O)n1 [Cidofovir, (S)-1-[3-hydroxy-2-(phosphonomethoxy)propyl]cytosine]
- effect on tumor cell growth in combination with VP16 ([1]; VP16 5 μg/ml): synergic inhibitory effect
- effect on tumor cell growth in combination with cis platinum ([1]; cis platinum 2.5 μg/ml): synergic inhibitory effect
- radiation-induced DNA repair at the chromosomal level [2]: no significant change
- cell proliferation [3]: inhibited in a concentration-dependent and in a time-dependent fashion
- apoptosis [4]: marked increase
- P53 density score ([5]; 3 days): 2.1
- P53 density score ([5]; 6 days): 3.7
- LMP-1 expression ([6]; 24 hours after exposure (data not shown)): significant inhibition
- LMP-1 expression ([6]; RAJI cells, Cidofovir 10 μg/ml, 48 hrs): marked decrease
- radiosensitization (decrease of SF2, surviving fraction at 2 Gy) [7]: increased cell kill
- radiosensitization (decrease of SF2, surviving fraction at 2 Gy) ([7]; listed as cidofovir): pronounced radiosensitization
- tumor necrosis (histological sections) [8]: increased tumor necrosis
- tumor growth [9]: dramatically reduced the growth delay
- P53 density score ([10]; 3 days): 1.2
- P53 density score ([10]; 6 days): 1.65
- radiosensitization (cell survival) [11]: increased cell kill
- radiosensitization (cell survival) ([11]; listed as cidofovir): markedly radiosensitized
- Bcl2 expression [12]: downregulation
- Bax expression [13]: up-regulation
- LMP-1 expression [14]: marked decrease
- expression of the viral oncoprotein E7 [15]: decreased expression
- E6 band density score ([16]; 3 days): 0.67
- E6 band density score ([16]; 6 days): 0.32
- apoptosis [17]: marked increase
- anti-tumor effect, sub-cutaneous versus intra-tumor administration ([18]; C15, sub-cutaneous 50 mg/kg cidofovir in combination with irradiation): anti-tumor effect of the same magnitude
- tumor growth delay ([18]; cidofovir alone, 60 mg/kg daily intra-tumor for 5 days): weak growth delay
- tumor growth ([18]; cidofovir intra-tumor 60 mg/kg daily 5 days + irradiation 7 Gy on day 3 and 5): dramatically reduced the growth delay; also recorded: major effect on tumor growth
- complete remission of tumors ([18]; combined treatment, 30 to 40 days after the treatment): nearly all the tumors were found to be in complete remission
- E6 band density score ([19]; 3 days): 0.7
- E6 band density score ([19]; 6 days): 0.25
- tumor growth ([20]; administered topically or systemically, nontoxic concentrations): no reduction of tumor growth
- tumor size ([20]; injected intratumorally, compared to placebo group): statistically significant reduction in tumor size
